# Measured values published in patent US4056520A (Research Corporation, priority 1975, dated 1977).
# Tested on: pituitary dwarf
# Assay: Metabolic studies in a pituitary dwarf (human growth hormone-like activity)
# Assay type: in vivo
# Conditions: same pituitary dwarf
# Experimental: There was also observed an increase in urinary calcium. […] This fraction in accordance with this invention evidencing clinical activity was administered by injection into the pituitary dwarf.
# In the treatment of the pituitary dwarf mentioned hereinabove with the active A-II fraction, the treatment involved metabolic studies. The pituitary dwarf received 5 milligrams of the A-II fraction dissolved in water twice a day intramuscularly for five days. The active A-II fraction could just as well been given intravenously although one would predict that the effects would be more prolonged with intramuscular injection. It would appear unlikely that the A-II fraction, being a peptide, could efficiently be given orally since it would be digested in the gastrointestinal tract.
substance,measurement,value
human growth hormone: human growth hormone given to the same pituitary dwarf for comparison,responses compared with the A-II fraction,qualitatively the same although the human growth hormone was more effective
